# Measurements reported in patent US20210244704A1, “Cabazitaxel in mCRPC Patients Previously Treated with Docetaxel and Who Failed a Prior androgen signaling targeted inhibitor Agent” (SANOFI MATURE IP, priority 2019, published 2021).
# Marks after values point to notes of the source that are not given here.
# Key:
# [1] = system: patients with mCRPC who progressed during or after docetaxel; details: every 3 weeks with prednisone 10 mg daily; cabazitaxel 25 mg/m^2, mitoxantrone 12 mg/m^2; cited from earlier work
# HRQL of mCRPC patients = test: Same clinical study: health-related quality of life, FACT-P questionnaire; assay type: in vivo, human
# Procedure: (§1) Pain response was defined as a decrease≥30% from baseline in BPI-SF pain intensity score with no increased analgesic use. HRQL was assessed using the Functional Assessment of Cancer Therapy-Prostate (FACT-P) questionnaire. Pain intensity was defined using item 3 of the validated Brief Pain Inventory-Short Form (BPI-SF), which rates pain at its worst in the last 24 hours on a scale of 0 (no pain) to 10 (worst imaginable pain). Analgesic consumption was reported by local investigators and coded by the World Health Organization's analgesic ladder (0=no analgesic; 1=non-opioid analgesics; 2=opioid analgesics for moderate pain; 3=opioids for severe pain). […] A clinically meaningful improvement or deterioration of total FACT-P score was defined as a difference of ±10 points from baseline. Clinically meaningful changes in HRQL and pain response were confirmed at two consecutive evaluations≥3 weeks apart during the on-treatment period. Survival curves were generated by Kaplan-Meier estimates.
# Time to deterioration was defined on two consecutive evaluations, ≥3 weeks apart as follows: • decrease of ≥10 points from baseline for FACT-P total score • decrease of ≥3 points from baseline for physical, social, emotional and functional well-being • decrease of ≥2 points from baseline for the pain PCS subscale • decrease of ≥9 points from baseline for FACT-G total and FACT-P TOI subscales
# FACT-P, a validated 39-item questionnaire evaluated 5 wellbeing domains: physical (PWB, 0-28), social and family (SWB, 0-28), emotional (EWB, 0-24), functional (FWB, 0-28), and prostate specific (PCS, 0-48).
# Total FACT-P score (PWB+SWB+EWB+FWB+PCS; 0-156), total FACT-G score (PWB+SWB+EWB+FWB; 0-108), FACT-P trial outcome index (PWB+FWB+PCS; 0-104), and PCS-Pain were calculated. The FACT-P overall score ranges from 0 to 156, higher values indicating a higher HRQL
# To control for type I error due to multiple comparisons, a hierarchical testing procedure was applied for the primary and key secondary end points. […] Further tests were stopped once a comparison was found not statistically significant at two-sided alpha level of 0.05. Descriptive statistics for FACT-P and EQ-5D-5L scores were provided for all cycles for which the number of evaluable patients reached ≥20% of the PRO population. For qualitative parameters, proportions of patients with deterioration, no change, and improvement were provided.
# The comparison of changes from baseline on PROs was analyzed using a mixed linear repeated measures model where treatment is a fixed effect variable and subject is a random effect variable. Stratification variables were included in the model as covariates as well as the interaction treatment visit. The least square means by treatment group with the corresponding 95% CI obtained from the mixed model were presented graphically. No adjustments for multiplicity were made.
# Compliance with the planned assessment schedule was calculated at baseline and for each treatment cycle as the proportion of patients still receiving study treatment at this time point. No formal imputation for missing data was carried out and reasons for missing data were not centrally recorded. FACT-P total score was evaluable when >80% of questions were answered. For individual FACT-P subscales, a score was evaluable when >50% of the questions in the subscale domain were answered. If <50% of the questions were missing in any FACT-P subscale, the subscale score could be imputed by prorated subscale scores using the following formula: Prorated subscale score=[Sum of question scores]×[N of questions in subscale][…][N of questions answered].
# pain in mCRPC patients = test: Same clinical study: pain response and pain progression (BPI-SF); assay type: in vivo, human; details: for Pain progression, HR: cabazitaxel vs abiraterone or enzalutamide
# Procedure: Pain response (PR): was measured using the Brief Pain Inventory-Short Form for pain intensity score and defined as a decrease by >30% from baseline in the Brief Pain Inventory-Short Form pain intensity item scores observed at two consecutive evaluations weeks apart without an increase in analgesic usage score.
# as §1
# Efficacy analysis used all randomized patients. Stratified log-rank tests were used to analyze time-to-event data. The primary analysis compared radiographic progression-free survival between the two treatment groups using a stratified log-rank test. Survival curves were generated using Kaplan-Meier estimates. Hazard ratios and associated 95% confidence intervals [CI] were estimated using a stratified Cox proportional hazards model. Stratified Cochran-Mantel-Haenszel chi-square tests were used to analyze categorical data. Descriptive statistics were used to summarize patient characteristics. The safety population (randomized patients who received at least one dose of study treatment) was used for all safety analyses.
# [2] = cabazitaxel vs abiraterone or enzalutamide
# [3] = cabazitaxel vs abiraterone or enzalutamide, all cycles
# [4] = cabazitaxel vs abiraterone or enzalutamide, end of treatment visit
# [5] = human, in vivo, listed as cabazitaxel
compound,measurement,setting,value
"CO[C@H]1C(=O)[C@]2(C)[C@@H](OC)C[C@H]3OC[C@@]3(OC(C)=O)[C@H]2[C@H](OC(=O)c2ccccc2)[C@]2(O)C[C@H](OC(=O)[C@H](O)[C@@H](NC(=O)OC(C)(C)C)c3ccccc3)C(C)=C1C2(C)C [Cabazitaxel, 4α-acetoxy-2α-benzoyloxy-5β,20-epoxy-1p-hydroxy-7β,10β-dimethoxy-9-oxo-11-taxen-13α-yl (2R,3S)-3-tert-butoxycarbonylamino-2-hydroxy-3-phenylpropionate]","Median overall survival, TROPIC trial",[1],15.1 months
same,Deterioration in FACT-P from baseline,HRQL of mCRPC patients,22.2%
same,"Emotional well-being, Kaplan-Meier probability of no deterioration at 3 months",HRQL of mCRPC patients; 3 months,91.1
same,"FACT-G total, Kaplan-Meier probability of no deterioration at 3 months",HRQL of mCRPC patients; 3 months,82.3
same,"FACT-P total, Kaplan-Meier probability of no deterioration at 3 months",HRQL of mCRPC patients; 3 months,86.2
same,"Functional well-being, Kaplan-Meier probability of no deterioration at 3 months",HRQL of mCRPC patients; 3 months,73.7
same,"Pain-related subscale, Kaplan-Meier probability of no deterioration at 3 months",HRQL of mCRPC patients; 3 months,81.6
same,"Physical well-being, Kaplan-Meier probability of no deterioration at 3 months",HRQL of mCRPC patients; 3 months,76.0
same,"Prostate-specific concerns, Kaplan-Meier probability of no deterioration at 3 months",HRQL of mCRPC patients; 3 months,83.6
same,"Social or family well-being, Kaplan-Meier probability of no deterioration at 3 months",HRQL of mCRPC patients; 3 months,78.7
same,"Trial outcome index, Kaplan-Meier probability of no deterioration at 3 months",HRQL of mCRPC patients; 3 months,86.1
same,"FACT-P total, deterioration events",HRQL of mCRPC patients; Table 6,29.6%
same,"Emotional well-being, time to deterioration HR",HRQL of mCRPC patients; [2],0.46**
same,"FACT-G total, time to deterioration HR",HRQL of mCRPC patients; [2],0.71
same,"FACT-P total, time to deterioration HR",HRQL of mCRPC patients; [2],0.72
same,"Functional well-being, time to deterioration HR",HRQL of mCRPC patients; [2],0.81
same,"Pain-related subscale, time to deterioration HR",HRQL of mCRPC patients; [2],0.74
same,"Physical well-being, time to deterioration HR",HRQL of mCRPC patients; [2],0.82
same,"Prostate-specific concerns, time to deterioration HR",HRQL of mCRPC patients; [2],0.68
same,"Social or family well-being, time to deterioration HR",HRQL of mCRPC patients; [2],1.03
same,"Trial outcome index, time to deterioration HR",HRQL of mCRPC patients; [2],0.65
same,"Pain-related subscale score change from baseline, least squares mean difference",HRQL of mCRPC patients; [3],+1.12 to +2.26
same,"Social or family well-being change from baseline, mean difference",HRQL of mCRPC patients; [3],−0.37 to −2.25
same,"FACT-P total score change from baseline, mean difference",HRQL of mCRPC patients; [4],+4.58
same,"Pain-related subscale score change from baseline, mean difference",HRQL of mCRPC patients; [4],+0.62
same,"Social or family well-being change from baseline, mean difference",HRQL of mCRPC patients; [4],−0.94
same,"FACT-P total score change from baseline, least squares mean difference","HRQL of mCRPC patients; cabazitaxel vs abiraterone or enzalutamide, until Cycle 5",+2.67 to +5.21
same,"Emotional well-being, deterioration events","HRQL of mCRPC patients; human, in vivo",16.7%
same,"Emotional well-being, deterioration events n/nT","HRQL of mCRPC patients; human, in vivo",18/108
same,"Emotional well-being, median time to deterioration","HRQL of mCRPC patients; human, in vivo",NE (NE-NE)
same,"FACT-G total, deterioration events","HRQL of mCRPC patients; human, in vivo",27.8%
same,"FACT-G total, deterioration events n/nT","HRQL of mCRPC patients; human, in vivo",30/108
same,"FACT-G total, median time to deterioration","HRQL of mCRPC patients; human, in vivo",14.8 (8.8-NE) months
same,"FACT-P total, deterioration events n/nT","HRQL of mCRPC patients; human, in vivo",32/108
same,"FACT-P total, median time to deterioration","HRQL of mCRPC patients; human, in vivo",14.8 (6.3-NE) months
same,"Functional well-being, deterioration events","HRQL of mCRPC patients; human, in vivo",36.1%
same,"Functional well-being, deterioration events n/nT","HRQL of mCRPC patients; human, in vivo",39/108
same,"Functional well-being, median time to deterioration","HRQL of mCRPC patients; human, in vivo",NE (5.9-NE)
same,Improvement in total FACT-P score from baseline,"HRQL of mCRPC patients; human, in vivo",25.0%
same,"Pain-related subscale, deterioration events","HRQL of mCRPC patients; human, in vivo",33.3%
same,"Pain-related subscale, deterioration events n/nT","HRQL of mCRPC patients; human, in vivo",36/108
same,"Pain-related subscale, median time to deterioration","HRQL of mCRPC patients; human, in vivo",10.4 (8.5-NE) months
same,"Physical well-being, deterioration events","HRQL of mCRPC patients; human, in vivo",36.1%
same,"Physical well-being, deterioration events n/nT","HRQL of mCRPC patients; human, in vivo",39/108
same,"Physical well-being, median time to deterioration","HRQL of mCRPC patients; human, in vivo",14.8 (4.9-NE) months
same,"Prostate-specific concerns, deterioration events","HRQL of mCRPC patients; human, in vivo",32.4%
same,"Prostate-specific concerns, deterioration events n/nT","HRQL of mCRPC patients; human, in vivo",35/108
same,"Prostate-specific concerns, median time to deterioration","HRQL of mCRPC patients; human, in vivo",14.8 (9.8-NE) months
same,"Social or family well-being, deterioration events","HRQL of mCRPC patients; human, in vivo",32.4%
same,"Social or family well-being, deterioration events n/nT","HRQL of mCRPC patients; human, in vivo",35/108
same,"Social or family well-being, median time to deterioration","HRQL of mCRPC patients; human, in vivo",14.8 (7.9-14.8) months
same,"Trial outcome index, deterioration events","HRQL of mCRPC patients; human, in vivo",26.9%
same,"Trial outcome index, deterioration events n/nT","HRQL of mCRPC patients; human, in vivo",29/108
same,"Trial outcome index, median time to deterioration","HRQL of mCRPC patients; human, in vivo",14.8 (8.5-NE) months
same,"FACT-P total, median time to deterioration",HRQL of mCRPC patients; [5],14.8 months
same,Improvement in total FACT-P score from baseline,"HRQL of mCRPC patients; ±10 points, confirmed",27 patients
same,"Pain (BPI-SF), Kaplan-Meier probability of no deterioration at 3 months",pain in mCRPC patients; 3 months,87.8
same,Probability of not having pain progression after 12 months,pain in mCRPC patients; 12 months,66.2%
same,"Pain progression, HR",pain in mCRPC patients,0.55*
same,"Pain progression, HR",pain in mCRPC patients; listed as cabazitaxel,0.55
same,Patients with a confirmed pain response,pain in mCRPC patients; evaluable 111 and 109,50 n
same,Patients with a confirmed pain response,"pain in mCRPC patients; evaluable patients, listed as cabazitaxel",45.0%
same,Median time to pain progression (BPI-SF),"pain in mCRPC patients; human, in vivo",NE (NE-NE)
same,Pain (BPI-SF) deterioration events,"pain in mCRPC patients; human, in vivo",22.5%
same,"Pain (BPI-SF) deterioration events, n/nT","pain in mCRPC patients; human, in vivo",25/111
same,Median time to pain progression (BPI-SF),pain in mCRPC patients; [5],not reached
